“Also recorded” adds a separate entry of the source. Marks after values point to notes of the source that are not given here.
Tests used:
N2a cells = assay: qRT-PCR mRNA expression in N2a cells treated with ligand 1; assay type: cell-based, mouse
Protocol: The N2a cells grown for 6 days in a serum-free medium (1:1 mixture of DMEM and OptiMEM, plus penicillin and streptomycin (Invitrogen, Carlsbad, CA, USA) until the cells developed neuronal processes. As shown in (FIG. 10), these cells were used for 4 groups—one control group and 3 treatment groups. 1) untreated N2a cells (the control group), 2) N2a cells treated with ligand 1 (N2a+ligand 1), 3) N2a cells transfected mAPP with the (lipofectamine) (20 μM final concentration for 6 hrs (mAPP), 4) N2a cells transfected with mAPP cDNA for 6 hrs, treated with ligand 1 (mAPP+ligand 1 treatment group), N2a cells treated with ligand 1 for 24 hrs and then treated with the mAPP cDNA for 6 hrs (ligand 1+mAPP treatment group). As shown in (FIG. 10), the inventors performed 4 independent cell cultures and treatments for all experiments (n=4).
mRNA levels of mitochondrial dynamics and mitochondrial biogenesis and synaptic genes. Using the reagent TriZol (Invitrogen), the inventors isolated total RNA from 4 independent treatments of N2a cells (n=4) from control (untreated N2a cells) and experimental treatments (N2a cells treated with Ligand 1; N2a cells transfected with mAPP; N2a cells transfected with mAPP and then treated with Ligand 1. Using primer express Software (Applied Biosystems), the inventors designed the oligonucleotide primers for the housekeeping genes β-actin, GDPH; APP-related genes (APP, BACE1 and PSN1); mitochondrial structural genes; fission (Drp1 and Fis1); fusion genes (MFN1, MFN2, Opa1) (54), mitochondrial biogenesis genes (PGC1α, Nrf1, Nrf2, and Tfam) (Manczak et al., 2019), and synaptic proteins (SYN, PSD95 and MAP2). The primer sequences and amplicon sizes are listed in (Table 1). With SYBR-Green chemistry-based quantitative real-time RT-PCR, the inventors measured mRNA expression of the genes mentioned above as described by Manczak et al. 2019(54). Briefly, 2 μg of DNAse-treated total RNA was used as starting material, to which the inventors added 1 μl of oligo (dT), 1 μl of 10 mM dNTPs, 4 μl of 5× first strand buffer, 2 μl of 0.1 M DTT, and 1 μl RNAse outout. The reagents RNA, dT), and dNTPs were mixed first, then heated at 65° C. for 5 min, and finally chilled on ice until the remaining components were added. The samples were incubated at 42° C. for 2 min, and then 1 μl of Superscript II (40 U/μl) was added. The samples were then incubated at 42° C. for 50 min, at which time the reaction was inactivated by heating at 70° C. for 15 min.
Quantitative real-time PCR amplification reactions were performed in N2a cells in an ABI Prism 7900 sequence detection system (Applied Biosystems, Foster City, CA) in a 25-μl volume of total reaction mixture. The reaction mixture consisted of 1×PCR buffer containing SYBR-Green; 3 mM MgCl2; 100 nm of each primer; 200 nm of dATP, dGTP, and dCTP each; 400 nm of dUTP; 0.01 U/μl of AmpErase UNG; and 0.05 U/μl of AmpliTaq Gold. A 20 ng cDNA template was added to each reaction mixture.
The CT-values of β-actin was tested to determine the unregulated endogenous reference gene in N2a cells that were treated with Aβ and protective molecules, and in untreated N2a cells. In the latter case, the CT-value was similar in untreated and N2a cells treated with MTAs and Aβ. The CT-value is an important quantitative parameter in real-time PCR analysis as described in Gutala and Reddy (2004) (55). All RT-PCR reactions were carried out in triplicate, with no template control. The PCR conditions were: 50° C. for 2 min and 95° C. for 10 min, followed by 40 cycles of 95° C. for 15 sec and 60° C. for 1 min. The fluorescent spectra were recorded during the elongation phase of each PCR cycle. To distinguish specific amplicons from non-specific amplifications, a dissociation curve was generated. […]

mAPP N2a cells = assay: Immunoblotting analysis of protein levels in mAPP N2a cells; assay type: cell-based, mouse; conditions: immunoblot; for Nrf1 protein level / Nrf2 protein level: P=0.004
[1] = N2a + Ligand1 relative to untreated N2a cells
[2] = N2a + Ligand1 relative to untreated N2a cells, negative = decrease
[3] = ligand 1 treated N2a cells relative to untreated cells, size of the decrease
[4] = ligand 1 treated N2a cells relative to untreated cells, size of the decrease, no statistical significance
[5] = mAPP+ligand 1 relative to mAPP cells, P=0.001
[6] = mAPP+ligand 1 relative to mAPP cells, P=0.002, listed as ligand 1
[7] = mAPP+ligand 1 relative to mAPP cells, listed as ligand 1
[8] = mAPP+ligand 1 relative to mAPP cells, listed as ligand1
[9] = mAPP+ligand 1 relative to mAPP cells, P=0.01, listed as ligand 1
[10] = mAPP+ligand 1 relative to mAPP cells, P=0.01, listed as ligand1
[11] = mAPP+ligand 1 relative to mAPP cells, P=0.02

Substance: [(6As,8S,10aS,12aS)-10a, 12a-dimethyl-2-oxo-3,4,4a,4b,5,6,6a,7,8,9,10,10b,11,12-tetradecahydro-1H-naphtho[2,1-f]quinolin-8-yl] 4-[4-[bis(2-chloroethyl)amino]phenyl]butanoate [Ligand 1]
- mRNA fold change Mfn1 (N2a cells; [1]): 1.1 fold
- mRNA fold change Mfn2 (N2a cells; [1]): 1.2 fold
- mRNA fold change Nrf1 (N2a cells; [1]): 1.2 fold
- mRNA fold change Nrf2 (N2a cells; [1]): 1.3 fold
- mRNA fold change OPA1 (N2a cells; [1]): 1.4 fold
- mRNA fold change PSD95 (N2a cells; [1]): 1.2 fold
- mRNA fold change Synaptophysin (N2a cells; [1]): 1.4 fold
- mRNA fold change TFAM (N2a cells; [1]): 1.2 fold
- mRNA fold change PGC1a (N2a cells; N2a + Ligand1 relative to untreated N2a cells, listed as Ligand1): 1.6* fold
- mRNA fold change PGC1a (N2a cells; N2a + Ligand1 relative to untreated N2a cells, listed as ligand 1): 1.6 fold
- mRNA fold change APP (N2a cells; [2]): −1.2 fold
- mRNA fold change BACE1 (N2a cells; [2]): −1.8** fold
- mRNA fold change Drp1 (N2a cells; [2]): −1.1 fold
- mRNA fold change Fis1 (N2a cells; [2]): −1.1 fold
- mRNA fold change Presenilin1 (N2a cells; [2]): −1.3 fold
- APP mRNA, fold decreased (N2a cells; [3]): 1.8 fold
- BACE1 mRNA, fold decreased (N2a cells; [3]): 1.2 fold
- PS1 mRNA, fold decreased (N2a cells; [3]): 1.3 fold
- Drp1 mRNA, fold reduced (N2a cells; [4]): 1.1 fold
- Fis1 mRNA, fold reduced (N2a cells; [4]): 1.1 fold
- BACE1 protein level (mAPP N2a cells; ligand 1 treated cells relative to mAPP cells): significantly reduced
- C-terminal fragment C99 protein level (mAPP N2a cells; [5]): significantly decreased; also recorded: significantly reduced
- Fis1 protein level (mAPP N2a cells; [5]): significantly decreased
- C-terminal fragment C83 protein level (mAPP N2a cells; [6]): significantly decreased; also recorded: significantly reduced
- Mfn1 protein level (mAPP N2a cells; [6]): increased
- Mfn1 protein level (mAPP N2a cells; mAPP+ligand 1 relative to mAPP cells, P=0.002, listed as ligand1): significantly increased
- Nrf1 protein level (mAPP N2a cells; [7]): increased
- Nrf2 protein level (mAPP N2a cells; [7]): increased
- Nrf1 protein level (mAPP N2a cells; [8]): significantly increased
- Nrf2 protein level (mAPP N2a cells; [8]): significantly increased
- Drp1 protein level (mAPP N2a cells; mAPP+ligand 1 relative to mAPP cells, P=0.01): significantly decreased
- Opa1 protein level (mAPP N2a cells; [9]): increased
- PGC1α protein level (mAPP N2a cells; [9]): increased
- Opa1 protein level (mAPP N2a cells; [10]): significantly increased
- PGC1α protein level (mAPP N2a cells; [10]): significantly increased
- PSD95 protein level (mAPP N2a cells; [11]): significantly increased
- Synaptophysin protein level (mAPP N2a cells; [11]): significantly increased
- Full-length mutant APP protein level (mAPP N2a cells; mAPP+ligand 1 relative to mAPP cells, P=0.03): significantly decreased; also recorded: significantly reduced
- MAP2 protein level (mAPP N2a cells; mAPP+ligand 1 relative to mAPP cells, P=0.04): significantly increased
- Mfn2 protein level (mAPP N2a cells; [7]): increased
- TFAM protein level (mAPP N2a cells; [7]): increased
- Mfn2 protein level (mAPP N2a cells; [8]): significantly increased
- TFAM protein level (mAPP N2a cells; [8]): significantly increased

— patent US12042492B2 (priority 2020, dated 2024)
